The values below come from the Bradley open melting point set (2014).

Several values for one entry are separate records, joined by “and”; a condition that tells them apart may be missing. Equal values may be shown once.

Turning to `OCCc1ccccc1` [2-Phenyl-Ethanol], the melting point is -27 °C.
The molecule `CCOC(=O)c1csc(C)n1` [ethyl 2-methyl-1,3-thiazole-4-carboxylate] gave a melting point of 57 °C.
Under `Cc1ccc([N+](=O)[O-])cc1C` [1,2-Dimethyl-4-nitrobenzene] stands 30.5 °C.
`C[Si]1(C)O[Si](C)(C)O[Si](C)(C)O[Si](C)(C)O1` [octamethylcyclotetrasiloxane]: the melting point came out at 18 °C.
Then `Brc1ccc(Br)cc1` [1,4-dibromobenzene], with 87.3 °C and 87 °C and 88 °C; and `CC(C)(O)C(C)(C)O` [pinacol, anhydrous], with 44 °C; and `CSC` [Dimethyl sulfide], with -98 °C.
Under `C=Cc1ccccc1C(N)=O` [o-vinylbenzamide] stands 152 °C.
Then `CC(=O)c1cccc(B(O)O)c1` [3-acetylbenzeneboronic acid], with 203 °C; and `Cc1ccccc1CNC(=O)c1ccccc1` [N-(2-methylbenzyl)benzamide], with 118 °C; and `O=C(O)c1ccccc1Br` [2-bromobenzoic acid], with 148 °C.
In turn, `OC1CCCCC1` [cyclohexanol] came in with a melting point of 24 °C.
Under `COCC(=O)N(c1c(C)cccc1C)C(C)C(=O)OC` (stereo unspecified) [metalaxyl] stands 72 °C.
In turn, `c1ccc(-c2csc(-c3cccnc3)n2)cc1` [4-phenyl-2-(3-pyridyl)thiazole] yielded a melting point of 54 °C.
In turn, `CCOC(=O)/C(C#N)=N\Nc1ccccc1[N+](=O)[O-]` [Ethyl (2Z)-cyano[(2-nitrophenyl)hydrazono]acetate] had a melting point of 103 °C.
For `Cc1ccc(C#N)cc1C` [3,4-dimethylbenzonitrile], the melting point was 66 °C.
In turn, `CC=C1CCC2C3CCC4CC(OC(C)=O)CCC4(C)C3CCC12C` (stereo unspecified) [pregn-17-en-3-yl acetate] gave a melting point of 119 °C.
Under `ClCCCCCl` [1,4-dichlorobutane] stands -38 °C; under `ClCBr` [Bromo(chloro)methane], -88 °C.
Then `NC(=O)NO` [Hydroxyurea], with 144 °C; and `CCOC(=O)c1cc(C)n(C2=CC(C)N=N2)n1` (stereo unspecified) [ethyl 5,5'-dimethyl-1'H-1,3'-bipyrazole-3-carboxylate], with 121 °C.
Take `Cc1cc(/C=C2\S/C(=N\c3ccccc3)N(CC#N)C2=O)c(C)n1-c1ccc(C(F)(F)F)cc1` [OSM-S-43]: the melting point turned out to be 73 °C.
Under `N#Cc1c(Cl)cccc1Cl` [2,6-Dichlorobenzonitrile] stands 144 °C; under `COc1cccc(C)c1C` [2,3-dimethylanisole], 29 °C.
Under `CCCCCCCCCCCCCCCCCC(=O)O[C@H]1CC[C@@]2(C)C(=CC[C@H]3[C@@H]4CC[C@H]([C@H](C)CCCC(C)C)[C@@]4(C)CC[C@@H]32)C1` [cholesteryl stearate] stands 80 °C; under `C(=C\c1ccccc1)/c1ccccc1` [trans-Stilbene], 125 °C.
`CC1=C(C)C(C)N=N1` (stereo unspecified) [1H-pyrazole, 3,4,5-trimethyl-] had a melting point of 138 °C.
Then `CC1(C)[C@H]2CC[C@]1(C)C(=O)C2` [(1S)-camphor], with 178 °C; and `Cc1ccc(-c2csc(/C(C#N)=N/Nc3cccc(C)c3)n2)cc1`, with 133 °C; and `CC/N=c1/nc(Cl)[nH]/c(=N\C(C)C)[nH]1` [Atrazine], with 177 °C.
Consider `Oc1ccccc1O` [catechol], for which the melting point is 105 °C.
Under `N#C/C(=C\c1ccccc1)c1nc2ccccc2s1` [(2E)-2-(1,3-Benzothiazol-2-yl)-3-phenylacrylonitrile] stands 106 °C; under `Cc1cccc(C)c1C` [1,2,3-trimethylbenzene], -25 °C.
The molecule `O=C(O)c1ccc(O)c([N+](=O)[O-])c1` [4-hydroxy-3-nitrobenzoic acid] returned a melting point of 183 °C.
Under `O=C(O)CSc1ccc(C(F)(F)F)cc1` [[4-(trifluoromethyl)phenylthio]acetic acid] stands 116 °C; under `C=CCc1cc(OC)c(O)c(C(=O)NCCO)c1` [alibendol], 95 °C.
Under `CCCCC(=O)CC` [3-heptanone] stands -37 °C; under `CN(C)C(=O)Nc1ccc(Cl)c(Cl)c1` [diuron], 158 °C (2×) and 159 °C; under `O=C(O)/C=C/c1ccco1` [3-(2-furyl)acrylic acid], 142 °C.
Under `O=C(Oc1ccccc1)c1ccccc1` [phenyl benzoate] stands 69 °C; under `OC1c2ccccc2Oc2ccccc21` [xanthydrol], 124 °C; under `ClC1C(Cl)C(Cl)C(Cl)C(Cl)C1Cl` (stereo unspecified) [Lindane], 112 °C.
`OB(O)c1cccc(Cl)c1` [3-chlorobenzeneboronic acid] registered a melting point of 183 °C.
Consider `CC12CCC(CC1=O)C2(C)C` (stereo unspecified) [camphor], for which the melting point was 177 °C.
Take `Cc1ccc(Oc2ccccc2C=O)cc1` [2-(p-tolyloxy)benzaldehyde]: the melting point came out at 55 °C.
As to `Nc1ccc([N+](=O)[O-])cc1Cl` [2-chloro-4-nitroaniline], the melting point was 108 °C.
Then `CC1(CO)NC(C(=O)O)CC2c3ccccc3NC21` (stereo unspecified), with 260 °C; and `CCCCCCO` [Hexan-1-ol], with -52 °C.
Then `Cc1ncc(COP(=O)(O)O)c(C=O)c1O` [Pyridoxal Phosphate], with 205 °C; and `Oc1ccc(OCc2ccccc2)cc1` [Monobenzone], with 114 °C; and `N#CCc1ccccc1[N+](=O)[O-]` [o-nitrophenylacetonitrile], with 84 °C.
Then `CC(C)(O)c1ccccc1` [2-phenyl-2-propanol], with 34 °C.
In turn, `CC(C)C(C)C(C)C` [2,3,4-trimethylpentane] came in with a melting point of -109 °C.
Molecule `N#Cc1cc(Cl)ccc1Cl` [2,5-dichlorobenzonitrile] yielded a melting point of 130 °C.
For `CC(N1CCOCC1)S(=O)(=O)O` (stereo unspecified) [1-(Morpholin-4-yl)ethanesulfonic acid], the melting point is 243 °C.
For the molecule `NC(N)=Nc1nc(CSCCC(N)=NS(N)(=O)=O)cs1` [famotidine], the melting point was determined as 163 °C.
Under `C[C@H](CCC(=O)O)[C@H]1CC[C@H]2[C@@H]3CC[C@@H]4C[C@H](O)CC[C@]4(C)[C@H]3C[C@H](O)[C@]12C` [deoxycholic acid] stands 174 °C.
Then `Clc1cccc2ccccc12` [1-chloronaphthalene], with -8 °C.
Then `COC(=O)CCC(C)C1CCC2C3C(OC(C)=O)CC4CC(=O)CCC4(C)C3CC(=O)C12C` (stereo unspecified) [methyl 7-(acetyloxy)-3,12-dioxocholan-24-oate], with 166 °C.
In the case of `c1ccc(Nc2ccccc2)cc1` [N-Phenylaniline], the melting point was found to be 53 °C.
`CCOC(=O)C1=C(C)N=NC1C` (stereo unspecified) [ethyl 3,5-dimethyl-1H-pyrazole-4-carboxylate] registered a melting point of 119 °C.
For the molecule `COc1ccc(Cl)c(Cl)c1Cl` [1-Methoxy-2,3,4-trichlorobenzene], the melting point stood at 70 °C.
Under `CC(=O)Nc1cccc(O)c1` [3-acetamidophenol] stands 148 °C; under `c1ccc2cc3ccccc3cc2c1` [anthracene], 216 °C (4×) and 218 °C.
Then `Cn1c(=O)c2c(ncn2C)n(C)c1=O` [Caffeine], with 236 °C; and `Cc1cccc(C)c1NC(=O)CN1CCN(CCCC(c2ccc(F)cc2)c2ccc(F)cc2)CC1` [lidoflazine], with 159 °C; and `C=COCCCC` [N-butyl vinyl ether], with -113 °C.
Molecule `Cc1ccc(C)c(-c2ccc([N+](=O)[O-])cc2)c1` [2,5-Dimethyl-4'-nitrobiphenyl] yielded a melting point of 98.3 °C.
Under `Cc1cccc(C)c1O` [2,6-dimethylphenol] stands 46 °C; under `Oc1c(Cl)cc(Cl)c2cccnc12` [5,7-dichloro-8-hydroxyquinoline], 181 °C; under `O=C(O)CCl` [chloroacetic acid], 62 °C.
Under `Cc1cc(C)cc(C)c1` [mesitylene] stands -45 °C.
Under `O=S(=O)(Nc1cccc(Cl)c1Cl)c1ccccc1` [2,3-dichloro-1-phenylsulfonamidobenzene] stands 114 °C; under `Cn1ccnc1I` [2-iodo-1-methylimidazole], 81 °C; under `NCCCCN` [Butane-1,4-diamine], 27.5 °C.
On to `CC(=O)Oc1cccc2ccccc12` [1-naphthyl acetate], for which the melting point came to 45 °C.
Consider `C#CCON1C(=O)c2ccccc2C1=O` [N-propargyloxyphthalimide], for which the melting point worked out at 151 °C.
Then `CN(C)c1ccc(/N=N/c2ccc(N=C=S)cc2)cc1` [4-dimethylaminoazobenzene-4'-isothiocyanate], with 170 °C; and `Cc1c(C)n(C#N)c2ccccc12` [2,3-dimethyl-1H-indole-1-carbonitrile], with 97 °C.
Then `CCOC(=O)c1c(SC)n[nH]c1N`, with 143 °C.
With `Cc1ccccc1[N+](=O)[O-]` [1-Methyl-2-nitrobenzene], the melting point was -10 °C.
`CC(C)(C)C1CCC(=O)CC1` [4-tert-butylcyclohexanone] had a melting point of 49 °C.
The molecule `OCC#CCO` [But-2-yne-1,4-diol] gave a melting point of 57 °C.
Then `N#CCCCC#N` [glutaronitrile], with -29 °C; and `OB(O)c1ccc(-c2ccccc2)cc1` [biphenyl-4-boronic acid], with 243 °C; and `O=Cc1cccc(C=O)c1` [Isophthalaldehyde], with 88.8 °C.
Under `COC(=O)CC(C)=O` [methyl acetoacetate] stands -80 °C.
On to `Oc1cccc(Cl)c1` [3-Chlorophenol], for which the melting point was 33 °C and 32.6 °C.
`CC(C)CCCC(C)(C)O` [2,6-dimethyl-2-heptanol]: the melting point is -10 °C.
Under `Clc1nc(Cl)nc(Cl)n1` [cyanuric chloride] stands 147 °C; under `CC(=O)NC1C2CCC(C)(C1NC(C)=O)C2(C)C` (stereo unspecified), 250 °C.

A word on the melting point: it is the temperature, or range, at which the solid turns liquid.
